Measurements from PubChem BioAssay (NCI).
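All cell lines were grown in 96-well plates and treated with compound for 48 hours. TGI is the concentration that stops growth completely.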

What was measured:
Assay in all cases: NCI anticancer screen, dose series, 48 h
[1] = tested on: 786-0 renal
[2] = tested on: A498 renal
[3] = tested on: A549 NSCLC
[4] = tested on: ACHN renal
[5] = tested on: BT-549 breast
[6] = tested on: CAKI-1 renal
[7] = tested on: COLO 205 colon
[8] = tested on: DU-145 prostate
[9] = tested on: EKVX NSCLC
[10] = tested on: HCC-2998 colon
[11] = tested on: HCT-116 colon
[12] = tested on: HCT-15 colon
[13] = tested on: HL-60(TB) leukemia
[14] = tested on: HOP-62 NSCLC
[15] = tested on: HOP-92 NSCLC
[16] = tested on: HS 578T breast
[17] = tested on: HT29 colon
[18] = tested on: IGROV1 ovarian
[19] = tested on: K-562 leukemia
[20] = tested on: KM12 colon
[21] = tested on: LOX IMVI melanoma
[22] = tested on: M14 melanoma
[23] = tested on: MCF7 breast
[24] = tested on: MDA-MB-231 breast
[25] = tested on: MDA-MB-435
[26] = tested on: MDA-N
[27] = tested on: MOLT-4 leukemia
[28] = tested on: NCI-H226 lung
[29] = tested on: NCI-H23 lung
[30] = tested on: NCI-H460 lung
[31] = tested on: NCI-H522 lung
[32] = tested on: NCI/ADR-RES ovarian
[33] = tested on: OVCAR-3 ovarian
[34] = tested on: OVCAR-5 ovarian
[35] = tested on: OVCAR-8 ovarian
[36] = tested on: PC-3 prostate
[37] = tested on: RPMI-8226 leukemia
[38] = tested on: RXF 393 renal
[39] = tested on: SF-268 CNS
[40] = tested on: SF-295 CNS
[41] = tested on: SF-539 CNS
[42] = tested on: SK-MEL-2 melanoma
[43] = tested on: SK-MEL-28 melanoma
[44] = tested on: SK-MEL-5 melanoma
[45] = tested on: SK-OV-3 ovarian
[46] = tested on: SN12C renal
[47] = tested on: SNB-19 CNS
[48] = tested on: SNB-75 CNS
[49] = tested on: SR leukemia
[50] = tested on: SW-620 colon
[51] = tested on: T-47D breast
[52] = tested on: TK-10 renal
[53] = tested on: U251 CNS
[54] = tested on: UACC-257 melanoma
[55] = tested on: UACC-62 melanoma
[56] = tested on: UO-31 renal
[57] = tested on: CCRF-CEM leukemia
[58] = tested on: MALME-3M melanoma
[59] = tested on: OVCAR-4 ovarian

Q: Which results are given for O=c1oc2cc(O)ccc2c(O)c1C(c1ccccc1F)c1c(O)c2ccc(O)cc2oc1=O?
A: TGI [1]: > 100 µM; TGI [2]: > 100 µM; TGI [3]: > 100 µM; TGI [4]: > 100 µM; TGI [5]: 48.4 µM; TGI [6]: > 100 µM; TGI [7]: > 100 µM; TGI [8]: > 100 µM; TGI [9]: > 100 µM; TGI [10]: > 100 µM; TGI [11]: > 100 µM; TGI [12]: > 100 µM; TGI [13]: 43.7 µM; TGI [14]: > 100 µM; TGI [15]: > 100 µM; TGI [16]: > 100 µM; TGI [17]: > 100 µM; TGI [18]: > 100 µM; TGI [19]: 69 µM; TGI [20]: > 100 µM; TGI [21]: > 100 µM; TGI [22]: > 100 µM; TGI [23]: > 100 µM; TGI [24]: > 100 µM; TGI [25]: > 100 µM; TGI [26]: > 100 µM; TGI [27]: > 100 µM; TGI [28]: > 100 µM; TGI [29]: > 100 µM; TGI [30]: > 100 µM; TGI [31]: > 100 µM; TGI [32]: > 100 µM; TGI [33]: > 100 µM; TGI [34]: > 100 µM; TGI [35]: > 100 µM; TGI [36]: > 100 µM; TGI [37]: 83.4 µM; TGI [38]: > 100 µM; TGI [39]: > 100 µM; TGI [40]: > 100 µM; TGI [41]: > 100 µM; TGI [42]: > 100 µM; TGI [43]: > 100 µM; TGI [44]: > 100 µM; TGI [45]: > 100 µM; TGI [46]: > 100 µM; TGI [47]: > 100 µM; TGI [48]: > 100 µM; TGI [49]: > 100 µM; TGI [50]: > 100 µM; TGI [51]: > 100 µM; TGI [52]: > 100 µM; TGI [53]: > 100 µM; TGI [54]: > 100 µM; TGI [55]: > 100 µM; TGI [56]: > 100 µM

Q: Which results are given for C=C1CC[C@H](O)C(C)(C)[C@@H]1CC/C(C)=C/CC/C=C(\C)CC/C=C(\C)CCC=C(C)C?
A: TGI [1]: > 100 µM; TGI [2]: > 100 µM; TGI [3]: > 100 µM; TGI [4]: > 100 µM; TGI [5]: > 100 µM; TGI [6]: > 100 µM; TGI [57]: > 100 µM; TGI [7]: > 100 µM; TGI [8]: > 100 µM; TGI [9]: > 100 µM; TGI [10]: > 100 µM; TGI [11]: > 100 µM; TGI [12]: > 100 µM; TGI [13]: 69 µM; TGI [14]: > 100 µM; TGI [15]: > 100 µM; TGI [16]: > 100 µM; TGI [17]: > 100 µM; TGI [18]: > 100 µM; TGI [19]: > 100 µM; TGI [20]: > 100 µM; TGI [21]: > 100 µM; TGI [22]: > 100 µM; TGI [58]: > 100 µM; TGI [23]: > 100 µM; TGI [24]: > 100 µM; TGI [25]: > 100 µM; TGI [26]: > 100 µM; TGI [27]: > 100 µM; TGI [28]: > 100 µM; TGI [29]: > 100 µM; TGI [30]: > 100 µM; TGI [31]: > 100 µM; TGI [32]: > 100 µM; TGI [33]: > 100 µM; TGI [59]: > 100 µM; TGI [34]: > 100 µM; TGI [35]: > 100 µM; TGI [36]: > 100 µM; TGI [38]: 51.9 µM; TGI [39]: > 100 µM; TGI [40]: > 100 µM; TGI [41]: > 100 µM; TGI [42]: > 100 µM; TGI [43]: > 100 µM; TGI [44]: > 100 µM; TGI [45]: > 100 µM; TGI [46]: > 100 µM; TGI [47]: > 100 µM; TGI [48]: > 100 µM; TGI [49]: > 100 µM; TGI [50]: > 100 µM; TGI [51]: 59.3 µM; TGI [52]: > 100 µM; TGI [53]: > 100 µM; TGI [54]: > 100 µM; TGI [55]: > 100 µM; TGI [56]: > 100 µM
